pEC50: −log10 of the molar value. Where two headings read alike, the source gives them in different places.
What was measured:
α6β3δ receptors = biological target: α6β3δ receptors; set-up: method as in Stórustovu and Ebert 2006; settings: recombinantly expressed α6β3δ receptors, ref Stórustovu and Ebert 2006; read-out: muscimol EC50; cited from earlier work
α1βγ2 GABAARs = system: α1βγ2 GABAARs; set-up: method as in Karim et al. 2013; settings: ref Karim et al. 2013; cited from earlier work
[1] = biological target: T1, recombinant α4β3 receptors (Homo sapiens, UniProt P28472+P48169); test: Muscimol currents, two electrode voltage clamp in Xenopus oocytes, α4β3; type: cell-based; settings: α4β3‐injected oocytes, without δ
T1 construct: expressed in transfected cells; host or cells: Xenopus laevis oocytes injected with cRNA
T1 sequence (P48169 36-554): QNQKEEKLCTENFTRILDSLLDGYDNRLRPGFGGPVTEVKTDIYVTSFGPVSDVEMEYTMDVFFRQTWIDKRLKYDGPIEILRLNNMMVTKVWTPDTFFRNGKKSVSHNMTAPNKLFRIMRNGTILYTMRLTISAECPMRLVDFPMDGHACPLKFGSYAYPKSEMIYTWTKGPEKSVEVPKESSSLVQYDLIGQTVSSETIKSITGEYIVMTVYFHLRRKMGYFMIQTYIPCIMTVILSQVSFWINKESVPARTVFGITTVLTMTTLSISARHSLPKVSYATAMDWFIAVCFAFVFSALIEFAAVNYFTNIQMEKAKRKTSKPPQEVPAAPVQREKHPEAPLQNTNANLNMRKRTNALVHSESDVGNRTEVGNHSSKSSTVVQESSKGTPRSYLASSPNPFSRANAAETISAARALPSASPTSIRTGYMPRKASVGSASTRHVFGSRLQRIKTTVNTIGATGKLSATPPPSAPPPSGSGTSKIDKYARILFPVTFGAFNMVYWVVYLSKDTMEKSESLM
T1 sequence (P28472 26-473): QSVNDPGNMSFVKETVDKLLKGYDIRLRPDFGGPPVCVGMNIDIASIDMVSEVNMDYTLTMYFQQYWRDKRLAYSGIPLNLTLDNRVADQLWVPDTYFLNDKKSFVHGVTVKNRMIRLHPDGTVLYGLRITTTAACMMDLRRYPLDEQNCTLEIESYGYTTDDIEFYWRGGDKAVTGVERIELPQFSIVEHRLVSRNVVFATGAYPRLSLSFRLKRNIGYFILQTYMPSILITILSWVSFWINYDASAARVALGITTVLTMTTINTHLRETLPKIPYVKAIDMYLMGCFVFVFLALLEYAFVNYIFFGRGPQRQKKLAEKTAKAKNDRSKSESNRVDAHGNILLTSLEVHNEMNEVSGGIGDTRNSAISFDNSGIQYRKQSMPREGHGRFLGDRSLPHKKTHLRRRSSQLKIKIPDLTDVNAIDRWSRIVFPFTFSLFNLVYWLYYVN
From the text: (§1) Human α4, α6, β3, and δ cDNA clones for oocyte expression were made by PCR amplification of the coding region (NcoI site introduced with the amplifying 5′ oligonucleotide at the ATG initiation codon) and a HindIII (or SpeI) containing oligo) and cloning it into a NcoI‐HindIII (or SpeI) cut vector backbone derived from pEGFP‐N1 (Addgene 6085‐1). The entire transcribed region was confirmed by sequencing to ensure that protein sequences conform to consensus sequences found in the RefSeq database (https://www.ncbi.nlm.gov/RefSeq). Plasmids were linearized with NotI (New England Biolabs) and cRNA was transcribed, using T7 RNA polymerase (Ambion, mMESSAGE mMACHINE T7 Transcription Kit, Ambion Austin TX, USA, Cat. No. 1344). Xenopus laevis (Nasco, product number LM00531) oocytes were prepared from oocyte lobes shared by Dr. Olcese (UCLA, Anesthesiology). The oocytes were injected with 2 ng of each α6 and β3 subunit cRNA alone or together with 10 ng δ cRNA. Currents were measured 5–10 days after injection by two electrode voltage clamp using an Axoclamp 2B amplifier and pCLAMP software. Drug solutions were applied in ND96 (in mM 96 NaCl, 2 KCl, 1.8 CaCl2, 1 MgCl2, 5 HEPES pH 7.4) by gravity perfusion with bath exchange time of about 2 s. Muscimol was prepared as an aqueous 100 mM stock solution.

α4β3δ receptors [2] = biological target: α4β3δ receptors; set-up: method as in Mortensen et al. 2010; settings: recombinantly expressed α4β3δ receptors, ref Mortensen et al. 2010; read-out: muscimol EC50; cited from earlier work
α4β3δ receptors [3] = biological target: α4β3δ receptors; set-up: method as in Stórustovu and Ebert 2006; settings: recombinantly expressed α4β3δ receptors, ref Stórustovu and Ebert 2006; read-out: muscimol EC50; cited from earlier work
[4] = biological target: T2, recombinant α4β3δ receptors (Homo sapiens, UniProt O14764+P28472+P48169); test: Muscimol currents, two electrode voltage clamp in Xenopus oocytes, α4β3δ; type: cell-based
T2 construct: expressed in transfected cells; host or cells: Xenopus laevis oocytes injected with cRNA
T2 sequence (P48169 36-554): as the sequence (P48169 36-554) above
T2 sequence (P28472 26-473): as the sequence (P28472 26-473) above
T2 sequence (O14764 25-452): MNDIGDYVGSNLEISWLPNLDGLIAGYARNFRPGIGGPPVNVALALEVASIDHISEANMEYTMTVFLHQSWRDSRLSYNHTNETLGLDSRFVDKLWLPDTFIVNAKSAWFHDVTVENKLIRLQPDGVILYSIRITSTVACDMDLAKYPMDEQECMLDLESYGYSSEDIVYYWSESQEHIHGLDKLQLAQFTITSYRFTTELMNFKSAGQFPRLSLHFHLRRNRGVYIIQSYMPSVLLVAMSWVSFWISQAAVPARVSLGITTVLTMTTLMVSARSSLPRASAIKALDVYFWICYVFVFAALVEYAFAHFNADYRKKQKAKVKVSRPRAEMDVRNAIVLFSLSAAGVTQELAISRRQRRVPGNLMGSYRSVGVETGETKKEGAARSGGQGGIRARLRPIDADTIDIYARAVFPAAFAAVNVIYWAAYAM
From the text: as §1

[5] = system: different GABAAR subtypes; test: Affinity of muscimol compared with GABA across GABAAR subtypes; settings: across the board for different GABAAR subtypes

NCc1cc(=O)[nH]o1 [muscimol]
pEC50 (α6β3δ receptors): 6.80 | pEC50 (α1βγ2 GABAARs): ~6.00 | threshold muscimol concentration evoking currents [1]: about 30 nM | pEC50 (α4β3δ receptors [2]): 6.70 | pEC50 (α4β3δ receptors [3]): 5.64 | pEC50 ([4]; α4β3δ in Xenopus oocytes, estimated/approximate, read-out: EC50 of the high‐muscimol affinity (slowly deactivating) current component): 8.70 to 9.00 | threshold muscimol concentration evoking currents ([4]; α4β3δ‐injected oocytes): 0.1 nM | higher affinity than GABA [5]: 100–1000 times

Reference: article PMC6438731, “Extrasynaptic δ‐GABAA receptors are high‐affinity muscimol receptors” (Journal of Neurochemistry, 2019)
